# Where two headings read alike, the source gives them in different places.
# What was measured:
# [1] = ref Comptox, PubChem or DrugBank; cited from earlier work
# [2] = tested on: ZFL (hepatocytes) cell line; assay: cells; assay type: cell-based, zebrafish (Danio rerio); conditions: Danio rerio, Hepatocyte
# [3] = tested on: ZF4 (fibroblasts) cell line; assay: CFDA endpoint of AB/CFDA/NR multiplex, membrane stability; assay type: cell-based, zebrafish (Danio rerio); conditions: Danio rerio, Fibroblast
# [4] = tested on: ZF4 (fibroblasts) cell line; assay: MTS assay (MTS/BCA multiplex), NAD(P)H metabolism; assay type: cell-based, zebrafish (Danio rerio); conditions: Danio rerio, Fibroblast
# [5] = tested on: ZF4 (fibroblasts) cell line; assay: Neutral red, fluorescence (NRf), AB/CFDA/NR multiplex, lysosome stability; assay type: cell-based, zebrafish (Danio rerio); conditions: Danio rerio, Fibroblast
# [6] = tested on: zebrafish cell lines vs zebrafish embryo; assay: Potency ratios IC50;x/EC50;x (cytotoxicity assays vs mFET); design: species or system zebrafish (Danio rerio)
# [7] = tested on: ZF4 and ZFL cell lines; assay: Cytotoxicity assays, all endpoints, both cell lines (mean/range); assay type: cell-based, zebrafish (Danio rerio); conditions: 48 h
# [8] = tested on: ZFL (hepatocytes) cell line; assay: cells; assay type: cell-based, zebrafish (Danio rerio); conditions: Danio rerio, Hepatocyte; remark: listed apart in the source
# [9] = tested on: ZF4 (fibroblasts) cell line; assay: Neutral red, absorbance (NRa), AB/CFDA/NR multiplex, lysosome stability; assay type: cell-based, zebrafish (Danio rerio); conditions: Danio rerio, Fibroblast
# [10] = tested on: ZF4 (fibroblasts) cell line; assay: ATP assay (ATP/LDH multiplex), ATP metabolism; assay type: cell-based, zebrafish (Danio rerio); conditions: Danio rerio, Fibroblast
# [11] = tested on: ZFL (hepatocytes) cell line; assay: cells; assay type: cell-based, zebrafish (Danio rerio); conditions: Danio rerio, Hepatocyte; remark: listed apart in the source
# [12] = tested on: ZFL (hepatocytes) cell line; assay: cells; assay type: cell-based, zebrafish (Danio rerio); conditions: Danio rerio, Hepatocyte; remark: listed apart in the source
# [13] = tested on: zebrafish embryos; assay: animal or person; assay type: in vivo, zebrafish (Danio rerio); conditions: for EC50: Danio rerio
# [14] = tested on: ZFL (hepatocytes) cell line; assay: cells; assay type: cell-based, zebrafish (Danio rerio); conditions: Danio rerio, Hepatocyte; remark: listed apart in the source
# [15] = tested on: ZFL (hepatocytes) cell line; assay: cells; assay type: cell-based, zebrafish (Danio rerio); conditions: Danio rerio, Hepatocyte; remark: listed apart in the source
# [16] = tested on: ZF4 (fibroblasts) cell line; assay: BCA assay (MTS/BCA multiplex), protein amount; assay type: cell-based, zebrafish (Danio rerio); conditions: Danio rerio, Fibroblast
# [17] = tested on: zebrafish embryos; design: method as in earlier work; conditions: nominal, cited from earlier work
# [18] = tested on: ZFL (hepatocytes) cell line; assay: cells; assay type: cell-based, zebrafish (Danio rerio); conditions: Danio rerio, Hepatocyte; remark: listed apart in the source
# [19] = tested on: ZF4 (fibroblasts) cell line; assay: alamarBlue (AB) endpoint of AB/CFDA/NR multiplex, cellular respiration; assay type: cell-based, zebrafish (Danio rerio); conditions: Danio rerio, Fibroblast
smiles,measurement,setting,value
"CC1(C)C(C=C(Cl)c2ccc(Cl)cc2)C1C(=O)OC(C#N)c1ccc(F)c(Oc2ccccc2)c1 (centres unmarked) [Flumethrin, flumethrin]",Physiological charge,[1],0
same,logKoa,[1],11.7
same,logKow,[1],6.97
same,IC50,"[2]; NR-fluo - ZFL, log10 of IC50, read-out: LogIC50 (converted)",159 µM
same,IC50,"[2]; NR-fluo - ZFL, read-out: IC50",159 µM
same,IC50,"[2]; ZFL, 48 h exposure, nominal, log10, read-out: logIC50 (log10 IC50;nom) NRf (converted)",158 µM
same,IC50,"[2]; ZFL, 48 h exposure, nominal, read-out: IC50;nom NRf",159 µM
same,IC50,"[3]; CFDA - ZF4, log10 of IC50, read-out: LogIC50 (converted)",170 µM
same,IC50,"[3]; CFDA - ZF4, read-out: IC50",170 µM
same,IC50,"[3]; ZF4, 48 h exposure, nominal, log10, read-out: logIC50 (log10 IC50;nom) CFDA (converted)",170 µM
same,IC50,"[3]; ZF4, 48 h exposure, nominal, read-out: IC50;nom CFDA",170 µM
same,IC50,"[4]; MTS - ZF4, log10 of IC50, read-out: LogIC50 (converted)",83.1 µM
same,IC50,"[4]; MTS - ZF4, read-out: IC50",83.1 µM
same,IC50,"[4]; ZF4, 48 h exposure, nominal, log10, read-out: logIC50 (log10 IC50;nom) MTS (converted)",83.2 µM
same,IC50,"[4]; ZF4, 48 h exposure, nominal, read-out: IC50;nom MTS",83.1 µM
same,IC50,"[5]; NR-fluo - ZF4, log10 of IC50, read-out: LogIC50 (converted)",213 µM
same,IC50,"[5]; NR-fluo - ZF4, read-out: IC50",213 µM
same,IC50,"[5]; ZF4, 48 h exposure, nominal, log10, read-out: logIC50 (log10 IC50;nom) NRf (converted)",214 µM
same,IC50,"[5]; ZF4, 48 h exposure, nominal, read-out: IC50;nom NRf",213 µM
same,in vitro toxicity (IC50;free) higher than EC50;nom,[6]; ZF4 NRa endpoint vs embryo,10 fold
same,potency ratio IC50;nom/EC50;nom (median),"[6]; median over cytotoxicity endpoints, nominal, 48 h cells / 48 hpf mFET",698
same,difference in sensitivity between embryo (EC50;nom) and cells (IC50;nom),"[6]; nominal concentrations, higher potency in the mFET",two to three log-scales more sensitive in the mFET
same,"potency ratio IC50;nom/EC50;nom, BCA-ZFL endpoint","[6]; single endpoint BCA-ZFL, less sensitive in the cell-based assay","10,000 fold"
same,IC50,"[7]; Danio rerio, read-out: Mean log IC50nom, mean of all cytotoxicity endpoints (without LDH) in ZF4 and ZFL, 48 h, log10 (converted)",229 µM
same,Mean log IC50nom,"[7]; mean of all cytotoxicity endpoints (without LDH) in ZF4 and ZFL, log10, listed as Flu",-3.637 M
same,IC50,"[8]; ATP - ZFL, log10 of IC50, read-out: LogIC50 (converted)",441 µM
same,IC50,"[8]; ATP - ZFL, read-out: IC50",441 µM
same,IC50,"[8]; ZFL, 48 h exposure, nominal, log10, read-out: logIC50 (log10 IC50;nom) ATP (converted)",437 µM
same,IC50,"[8]; ZFL, 48 h exposure, nominal, read-out: IC50;nom ATP",441 µM
same,IC50,"[9]; NR-abs - ZF4, log10 of IC50, read-out: LogIC50 (converted)",104 µM
same,IC50,"[9]; NR-abs - ZF4, read-out: IC50",104 µM
same,IC50,"[9]; ZF4, 48 h exposure, nominal, log10, read-out: logIC50 (log10 IC50;nom) NRa (converted)",105 µM
same,IC50,"[9]; ZF4, 48 h exposure, nominal, read-out: IC50;nom NRa",104 µM
same,IC50,"[9]; ZF4 cell line, NRa endpoint, nominal, read-out: IC50;nom",53.1 µg/mL
same,IC50,"[10]; ATP - ZF4, log10 of IC50, read-out: LogIC50 (converted)",317 µM
same,IC50,"[10]; ATP - ZF4, read-out: IC50",317 µM
same,IC50,"[10]; ZF4, 48 h exposure, nominal, log10, read-out: logIC50 (log10 IC50;nom) ATP (converted)",316 µM
same,IC50,"[10]; ZF4, 48 h exposure, nominal, read-out: IC50;nom ATP",317 µM
same,IC50,"[11]; BCA - ZFL, log10 of IC50, read-out: LogIC50 (converted)",6130 µM
same,IC50,"[11]; BCA - ZFL, read-out: IC50",6130 µM
same,IC50,"[11]; ZFL, 48 h exposure, nominal, log10, read-out: logIC50 (log10 IC50;nom) BCA (converted)",6170 µM
same,IC50,"[11]; ZFL, 48 h exposure, nominal, read-out: IC50;nom BCA",6130 µM
same,IC50,"[12]; CFDA - ZFL, log10 of IC50, read-out: LogIC50 (converted)",118 µM
same,IC50,"[12]; CFDA - ZFL, read-out: IC50",118 µM
same,IC50,"[12]; ZFL, 48 h exposure, nominal, log10, read-out: logIC50 (log10 IC50;nom) CFDA (converted)",117 µM
same,IC50,"[12]; ZFL, 48 h exposure, nominal, read-out: IC50;nom CFDA",118 µM
same,difference in toxicity (EC50;nom) between 48 hpf and 144 hpf,[13]; 48 hpf time point less sensitive than 144 hpf,approximately the same
same,log EC50;nom (mFET),"[13]; 48 hpf, nominal, log10, listed as Flu",-6.562 M
same,EC50,"[13]; 48 hpf, nominal, log10, read-out: log EC50;nom (mFET) (converted)",0.275 µM
same,EC50,"[13]; 48 hpf, nominal, read-out: EC50;nom (embryo)",0.14 µg/mL
same,EC50,[13]; read-out: EC50 48hpf,0.274 µM
same,EC50,[13]; read-out: EC50;nom (mFET),0.274 µM
same,IC50,"[14]; NR-abs - ZFL, log10 of IC50, read-out: LogIC50 (converted)",160 µM
same,IC50,"[14]; NR-abs - ZFL, read-out: IC50",160 µM
same,IC50,"[14]; ZFL, 48 h exposure, nominal, log10, read-out: logIC50 (log10 IC50;nom) NRa (converted)",158 µM
same,IC50,"[14]; ZFL, 48 h exposure, nominal, read-out: IC50;nom NRa",160 µM
same,IC50,"[15]; AB - ZFL, log10 of IC50, read-out: LogIC50 (converted)",244 µM
same,IC50,"[15]; AB - ZFL, read-out: IC50",244 µM
same,IC50,"[15]; ZFL, 48 h exposure, nominal, log10, read-out: logIC50 (log10 IC50;nom) AB (converted)",245 µM
same,IC50,"[15]; ZFL, 48 h exposure, nominal, read-out: IC50;nom AB",244 µM
same,IC50,"[16]; BCA - ZF4, log10 of IC50, read-out: LogIC50 (converted)",42.1 µM
same,IC50,"[16]; BCA - ZF4, read-out: IC50",42.1 µM
same,IC50,"[16]; ZF4, 48 h exposure, nominal, log10, read-out: logIC50 (log10 IC50;nom) BCA (converted)",41.7 µM
same,IC50,"[16]; ZF4, 48 h exposure, nominal, read-out: IC50;nom BCA",42.1 µM
same,EC50,"[17]; 144 hpf, converted",0.216 µM
same,logEC50 144 hpf,[17]; log10,-6.667 M
same,IC50,"[18]; MTS - ZFL, log10 of IC50, read-out: LogIC50 (converted)",414 µM
same,IC50,"[18]; MTS - ZFL, read-out: IC50",414 µM
same,IC50,"[18]; ZFL, 48 h exposure, nominal, log10, read-out: logIC50 (log10 IC50;nom) MTS (converted)",417 µM
same,IC50,"[18]; ZFL, 48 h exposure, nominal, read-out: IC50;nom MTS",414 µM
same,IC50,"[19]; AB - ZF4, log10 of IC50, read-out: LogIC50 (converted)",351 µM
same,IC50,"[19]; AB - ZF4, read-out: IC50",351 µM
same,IC50,"[19]; ZF4, 48 h exposure, nominal, log10, read-out: logIC50 (log10 IC50;nom) AB (converted)",347 µM
same,IC50,"[19]; ZF4, 48 h exposure, nominal, read-out: IC50;nom AB",351 µM
